# How the values were obtained:
# [1] = tested on: huH-1 (Hepatocellular Carcinoma); experiment: Bliss excess, mean over the matrix (fraction); higher = more synergy;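 also: after 72 h of two-drug dosing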
# How it was run: (§1)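 Cell lines grown in DMEM/F12 or RPMI with 10% FBS were plated in 1536-well plates and held 24 hours at 37°C, 5% CO2 before 72 hours of exposure to two-drug dose matrices, with DMSO typically at 0.2%. CellTiter-Glo 2.0 luminescence gave viability, which was converted to inhibition. Vehicle wells were set to 0 and blank wells to 1. Combination Emax is the second-highest inhibition in the matrix, and Bliss excess is the observed combination effect minus the expected EA + EB − EA·EB, where EA and EB are the single-agent effects.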
# [2] = tested on: GA-10 (Burkitt's Lymphoma); experiment: combination Emax (second highest fraction inhibited in the dose matrix, 72 h); higher = more inhibition; extreme values may be limits of the assay
# How it was run: as §1
# [3] = tested on: DMS-53 (Small Cell Lung Carcinoma); experiment: as above
# How it was run: as §1
# [4] = tested on: JIMT-1 (Breast Carcinoma); experiment: as above
# How it was run: as §1
# [5] = tested on: A101D (Melanoma); experiment: as above
# How it was run: as §1
# [6] = tested on: AU565 (Breast Carcinoma); experiment: as above
# How it was run: as §1
# [7] = tested on: DU-4475 (Breast Carcinoma); experiment: as above
# How it was run: as §1
# [8] = tested on: OACp4C (Esophageal Adenocarcinoma); experiment: as above
# How it was run: as §1
# [9] = tested on: LS-411N (Colorectal Carcinoma); experiment: as above
# How it was run: as §1
# [10] = tested on: UACC-812 (Breast Carcinoma); experiment: as above
# How it was run: as §1
# [11] = tested on: CESS (Acute Myeloid Leukemia); experiment: as above
# How it was run: as §1
# [12] = tested on: COLO-792 (Melanoma); experiment: as above
# How it was run: as §1
# [13] = tested on: NCI-H716 (Colorectal Carcinoma); experiment: as above
# How it was run: as §1
# [14] = tested on: HCC1428 (Breast Carcinoma); experiment: as above
# How it was run: as §1
# [15] = tested on: TE-10 (Esophageal Squamous Cell Carcinoma); experiment: as above
# How it was run: as §1
# [16] = tested on: G-402 (Other Solid Carcinomas); experiment: as above
# How it was run: as §1
# [17] = tested on: 5637 (Bladder Carcinoma); experiment: as above
# How it was run: as §1
# [18] = tested on: RH-41 (Rhabdomyosarcoma); experiment: as above
# How it was run: as §1
# [19] = tested on: Jurkat (T-Lymphoblastic Leukemia); experiment: as above
# How it was run: as §1
# [20] = tested on: A253 (Head and Neck Carcinoma); experiment: as above
# How it was run: as §1
Compound,Bliss excess [1],combination Emax [2],combination Emax [3],combination Emax [4],combination Emax [5],combination Emax [6],combination Emax [7],combination Emax [8],combination Emax [9],combination Emax [10],combination Emax [11],combination Emax [12],combination Emax [13],combination Emax [14],combination Emax [15],combination Emax [16],combination Emax [17],combination Emax [18],combination Emax [19],combination Emax [20]
"CN(CCO)CC[C@H](CSc1ccccc1)Nc1ccc(S(=O)(=O)NC(=O)c2ccc(N3CCC([C@@H](O)c4ccccc4-c4ccc(Cl)cc4)CC3)cc2)cc1S(=O)(=O)C(F)(F)F [AZD4320] + C1CN(CCC1(C(=O)N[C@@H](CCO)C2=CC=C(C=C2)Cl)N)C3=NC=NC4=C3C=CN4 [Capivasertib] (first compound max 1 µM, 7x7, partner max 3 µM)",-0.0215,0.586,0.965,0.2,0.429,0.413,0.883,0.954,0.543,0.226,0.69,0.78,0.393,0.446,0.231,0.327,0.328,1,0.883,0.499
"CN(CCO)CC[C@H](CSc1ccccc1)Nc1ccc(S(=O)(=O)NC(=O)c2ccc(N3CCC([C@@H](O)c4ccccc4-c4ccc(Cl)cc4)CC3)cc2)cc1S(=O)(=O)C(F)(F)F [AZD4320] + C=CCn1c(=O)c2cnc(Nc3ccc(N4CCN(C)CC4)cc3)nc2n1-c1cccc(C(C)(C)O)n1 [AZD1775] (first compound max 1 µM, partner max 1 µM)",0.01,1,0.977,0.842,,0.829,1,0.938,0.938,0.14,1,0.944,0.449,0.505,0.848,0.491,0.979,1,0.993,0.531
"CN(CCO)CC[C@H](CSc1ccccc1)Nc1ccc(S(=O)(=O)NC(=O)c2ccc(N3CCC([C@@H](O)c4ccccc4-c4ccc(Cl)cc4)CC3)cc2)cc1S(=O)(=O)C(F)(F)F [AZD4320] + CCN(CCO)CCCOc1ccc2c(Nc3cc(CC(=O)Nc4cccc(F)c4)[nH]n3)ncnc2c1 [AZD2811] (first compound max 1 µM, 7x7, partner max 1 µM)",0.0161,0.661,0.949,0.319,0.667,0.34,0.971,0.863,0.567,0.12,0.937,0.781,0.298,0.754,0.463,0.776,0.898,0.828,0.512,0.467
"CN(CCO)CC[C@H](CSc1ccccc1)Nc1ccc(S(=O)(=O)NC(=O)c2ccc(N3CCC([C@@H](O)c4ccccc4-c4ccc(Cl)cc4)CC3)cc2)cc1S(=O)(=O)C(F)(F)F [AZD4320] + C[C@@H]1COCCN1C2=NC(=NC(=C2)C3(CC3)[S@](=N)(=O)C)C4=C5C=CNC5=NC=C4 [AZD6738] (first compound max 1 µM, 7x7, partner max 10 µM)",0.0215,0.979,0.994,0.871,0.891,0.494,1,0.95,0.943,0.275,0.987,0.692,0.647,0.708,0.84,0.84,0.91,0.964,0.955,0.892
"CN(CCO)CC[C@H](CSc1ccccc1)Nc1ccc(S(=O)(=O)NC(=O)c2ccc(N3CCC([C@@H](O)c4ccccc4-c4ccc(Cl)cc4)CC3)cc2)cc1S(=O)(=O)C(F)(F)F [AZD4320] + C[C@@H](Nc1cc(F)cc(F)c1)c1cc(C(=O)N(C)C)cc2c(=O)cc(N3CCOCC3)oc12 [AZD8186] (first compound max 1 µM, 7x7, partner max 3 µM)",-0.0461,0.85,0.991,0.316,0.781,0.364,1,0.916,0.414,,0.935,0.939,0.285,0.525,0.618,0.681,0.672,0.941,0.842,0.437
"CN(CCO)CC[C@H](CSc1ccccc1)Nc1ccc(S(=O)(=O)NC(=O)c2ccc(N3CCC([C@@H](O)c4ccccc4-c4ccc(Cl)cc4)CC3)cc2)cc1S(=O)(=O)C(F)(F)F [AZD4320] + Cc1cc2ncnn2cc1Nc1ncc2c(n1)n(C1CCOCC1)c(=O)n2C [AZD7648] (first compound max 1 µM, 7x7, partner max 10 µM)",-0.0586,0.643,0.977,0.225,0.452,0.327,0.916,0.906,0.183,0.15,0.566,0.9,0.209,0.584,0.202,0.475,0.172,0.91,0.655,0.149
"CN(CCO)CC[C@H](CSc1ccccc1)Nc1ccc(S(=O)(=O)NC(=O)c2ccc(N3CCC([C@@H](O)c4ccccc4-c4ccc(Cl)cc4)CC3)cc2)cc1S(=O)(=O)C(F)(F)F [AZD4320] + Cn1cnc2c(F)c(Nc3ccc(Br)cc3Cl)c(C(=O)NOCCO)cc21 [Selumetinib] (first compound max 1 µM, 7x7, partner max 3 µM)",-0.0106,0.491,1,0.268,0.781,0.421,1,0.967,0.907,0.238,0.95,0.913,0.582,0.559,0.562,0.553,0.782,0.855,0.798,0.523
"Cc1cc2ncnn2cc1Nc1ncc2c(n1)n(C1CCOCC1)c(=O)n2C [AZD7648] + C=CCn1c(=O)c2cnc(Nc3ccc(N4CCN(C)CC4)cc3)nc2n1-c1cccc(C(C)(C)O)n1 [AZD1775] (first compound max 10 µM, partner max 1 µM)",0.0313,0.988,0.204,0.721,0.762,0.547,0.88,0.814,0.574,0.209,0.919,0.558,0.487,0.238,0.86,0.543,0.792,0.927,0.886,0.415
"Cc1cc2ncnn2cc1Nc1ncc2c(n1)n(C1CCOCC1)c(=O)n2C [AZD7648] + CCN(CCO)CCCOc1ccc2c(Nc3cc(CC(=O)Nc4cccc(F)c4)[nH]n3)ncnc2c1 [AZD2811] (first compound max 10 µM, 7x7, partner max 1 µM)",0.0008,0.852,0.165,0.348,0.39,0.366,0.23,0.63,0.208,0.242,0.243,0.46,0.336,0.326,0.335,0.663,0.648,0.329,0.232,0.316
"Cc1cc2ncnn2cc1Nc1ncc2c(n1)n(C1CCOCC1)c(=O)n2C [AZD7648] + CN(C)CCCOc1ccc(-c2ccc3ncc4c(c3c2)n(C2CCOCC2)c(=O)n4C)cn1 [AZD0156] (first compound max 10 µM, 7x7, partner max 1 µM)",0.0674,0.446,0.139,0.348,0.374,0.593,0.0619,0.329,0.115,0.288,0.367,0.351,0.251,0.238,0.292,0.51,0.153,0.282,0.23,0.244
"Cc1cc2ncnn2cc1Nc1ncc2c(n1)n(C1CCOCC1)c(=O)n2C [AZD7648] + C[C@@H]1COCCN1C2=NC(=NC(=C2)C3(CC3)[S@](=N)(=O)C)C4=C5C=CNC5=NC=C4 [AZD6738] (first compound max 10 µM, 7x7, partner max 10 µM)",0.02,0.981,0.153,0.788,0.778,0.416,0.912,0.666,0.723,0.267,0.847,0.386,0.539,0.201,0.887,0.602,0.632,0.705,0.814,0.77
"Cc1cc2ncnn2cc1Nc1ncc2c(n1)n(C1CCOCC1)c(=O)n2C [AZD7648] + O=C(c1cc(Cc2n[nH]c(=O)c3ccccc23)ccc1F)N1CCN(C(=O)C2CC2)CC1 [Olaparib] (first compound max 10 µM, 7x7, partner max 10 µM)",-0.0557,0.569,0.128,0.252,0.261,0.213,0.565,0.363,0.0674,0.177,0.37,0.347,0.258,0.147,0.233,0.41,0.25,0.345,0.508,0.17

# Source: the supplement of paper PMC11061612
